The term EC50 denotes the midpoint of the concentration-response curve. Usually IC50 stands for the midpoint of a concentration-inhibition curve. For orientation: inhibition means the relative decrease from the control value, in per cent. As a reminder, the melting point is the temperature of the solid-liquid transition.

One series deals with A-10 cells. As to the kind of experiment: Cellular microtubule loss by indirect immunofluorescence. It counts as cell-based, rat. As to conditions: read-out: EC50 Values (nM) for Microtubule Loss in A-10 cells. How it is done: The effects of representative compounds on cellular microtubules were evaluated in A-10 (embryonic rat vascular smooth muscle cell line) cells using indirect immunofluorescence techniques as previously described (Tinley et al., Cancer Res. 63, 3211-20 (2003)). Cells were visualized using a Nikon Eclipse 80i fluorescence microscope and NIS Elements software. Changes in both interphase and mitotic microtubules were noted and photographed. The EC50 values, the concentration that causes approximately 50% loss of interphase microtubules was determined by evaluating a range of concentrations of each compound and the percent cellular microtubule depolymerization that was observed visually at each concentration was noted.
Microtubules were visualized by indirect immunofluorescence using a β-tubulin antibody, and the DNA was visualized with DAPI. A representative concentration response curve for NT-7-16 is also shown in FIG. 1 that was used to calculate its corresponding EC50 for microtubule loss. Concentration response curves for microtubule loss were plotted using data from at least three experiments for each compound and the corresponding EC50 values for microtubule loss are presented in Table 50.

The test system of a further series is HeLa WT-β-III cells. As to the kind of experiment: Antiproliferative SRB assay, βIII-tubulin expressing HeLa. As to conditions: for IC50: Table 49, βIII tubulin expressing line, 48 hr, SRB assay; for Rr (β-III): relative resistance: IC50 of expressing line divided by IC50 of parental HeLa. It counts as cell-based, human. The protocol: (§1) Cell Culture. Various representative cancer and other cell lines were sourced and grown as described previously [Mooberry, S. L., et al., Mol. Pharm. 72, 132-140 (2007)]. MDA-MB-435 (human melanoma cancer cells), and MDA-MB-231 (human breast cancer cells) were grown in IMEM Richter's Medium (Life Technologies, Grand Island, N.Y.) with 10% FBS (Hyclone, Logan, Utah) and 25 μg/mL gentamicin sulfate (Life Technologies). A-10 (embryonic rat vascular smooth muscle cells) and HeLa (human cervical cancer cells), SK-OV-3 (human ovarian cancer cells) and SK-OV-3-MDR-1-M6/6 (a clone of the SK-OV-3 that was generated from SK-OV-3 cells by adenovirus-mediated expression of MDR1) were grown in Basal Medium Eagle (BME, Sigma-Aldrich, St. Louis, Mo.) containing Earle's salts, 50 μg/ml gentamicin sulfate, and 10% FBS. HeLa cells (a single-cell clone derived from transduction of HeLa cells with wild-type (WT) βIII-tubulin) were grown in Dulbecco's Modified Eagle's Medium (DMEM, Life Technologies) containing 50 μg/mL gentamicin sulfate and 10% FBS.
(§2) Antiproliferative Effects. The pyrrole compounds were evaluated for their antiproliferative effects in a panel of cancer cell lines. Cells were plated into 96-well plates at predetermined densities and allowed to attach and proliferate for 24 hr, and then the compounds were added. After a 48 hr exposure to the compounds, the cells were fixed with trichloroacetic acid and cellular protein was determined using the sulforhodamine B (SRB) assay (Skehan et al., J. Natl. Cancer Inst. 82, 1107-12, (1990); Boyd and Paull Drug Devel. Res. 34, 91-109, (1995)). Concentration response curves were constructed, and the IC50 (the concentration required to inhibit proliferation by 50%) values were determined from the linear portions of the log concentration-response curves as described previously [Tinley, T. L., et al., Cancer Res. 63, 3211-3220, (2003)] as shown in Table 48.
(§3) First, drug resistance mediated by the expression of βIII tubulin was evaluated in an isogenic HeLa cell line pair. Expression of the βIII tubulin isotype is associated with clinical drug resistance to the taxanes in ovarian cancer, non small-cell lung cancer and breast cancer [Galmarini, C. M., et al., Clin. Cancer Res. 14, 4511-4516 (2008)]. Secondly, drug resistance mediated by the expression of the drug efflux pump protein, Pgp, was evaluated in the isogenic SK-OV-3 cell line pair. The expression of Pgp can lead to lower intracellular drug concentrations and diminished cytotoxic effects both in vitro and in vivo. All tubulin-binding anticancer drugs used currently in the clinic, except cabazitaxel, are substrates for Pgp, thus limiting their utility in drug resistant tumors [Penson, R. T., et al., Gynecol. Oncol. 93, 98-106 (2004)]. Differences in sensitivity between the parent and transformed cell line, indicative of resistance, was determined by calculating relative resistance (Rr) values in the two pairs of isogenic cell lines (dividing the IC50 of the expressing cell line by the IC50 of the parental cell line).
(In SRB staining, fixed cells bind dye roughly in proportion to their protein.)

The subject of series [1] is SK-OV-3 (human ovarian cancer cells). As to the kind of experiment: Antiproliferative SRB assay, SK-OV-3. It counts as cell-based. How it is done:
as §1, §2
as §3, with “The expression of Pgp can lead to lower intracellular drug concentrations and diminished cytotoxic effects both in vitro and in vivo.” left out

Series [2] has as its target T1, purified porcine brain tubulin (Sus scrofa, UniProt P02554).
T1 construct: of Purified Porcine Brain Tubulin; from tissue; host or cells: porcine brain
The series is described as follows: Inhibition of polymerization of purified tubulin (absorbance at 340 nm). It counts as biochemical.

Another series relates to SK-OV-3-MDR-1-6/6 cells. As to the kind of experiment: Antiproliferative SRB assay, Pgp expressing SK-OV-3. It counts as cell-based, human. As to conditions: for IC50: Table 49, Pgp expressing line, 48 hr, SRB assay; for Rr (Pgp): relative resistance: IC50 of expressing line divided by IC50 of parental SK-OV-3. How it is done:
as §1, §2
as §3, with “The expression of Pgp can lead to lower intracellular drug concentrations and diminished cytotoxic effects both in vitro and in vivo.” left out

Series [3] concerns MDA-MB-435 (human melanoma cancer cells). As to the kind of experiment: Antiproliferative SRB assay, MDA-MB-435. The following applies: read-out: MDA-MB-435 Anti-Proliferative Activity, IC50. It counts as cell-based. The protocol: as §1, §2
Series [4] relates to HeLa (human cervical cancer cells). The series is described as follows: Antiproliferative SRB assay, HeLa. It counts as cell-based. How it is done: as §1, §2, §3
Where [5] appears, read: Rattus norvegicus, A10, Table 50, concentration causing approximately 50% loss of interphase microtubules.
Setting [6] is: Homo sapiens, SK-OV-3, Table 48, 48 hr exposure, read-out: SK-OV-3 Anti-Proliferative Activity, IC50.
Where [7] appears, read: Homo sapiens, SK-OV-3, Table 49, parental line, 48 hr, read-out: SK-OV-3 IC50.
The mark [8] stands for this setting: Homo sapiens, MDA-MB-435, Table 48, 48 hr exposure, SRB assay.
The mark [9] stands for this setting: Homo sapiens, MDA-MB-435, Table 52.
Setting [10] is: Homo sapiens, HeLa, Table 48, 48 hr exposure, read-out: HeLa Anti-Proliferative Activity, IC50.
The mark [11] stands for this setting: Homo sapiens, HeLa, Table 49, parental line, 48 hr, read-out: HeLa IC50.

Structures are written as SMILES. Like-named read-outs stand apart in the source and are kept apart here.

T1 sequence (P02554 whole entry): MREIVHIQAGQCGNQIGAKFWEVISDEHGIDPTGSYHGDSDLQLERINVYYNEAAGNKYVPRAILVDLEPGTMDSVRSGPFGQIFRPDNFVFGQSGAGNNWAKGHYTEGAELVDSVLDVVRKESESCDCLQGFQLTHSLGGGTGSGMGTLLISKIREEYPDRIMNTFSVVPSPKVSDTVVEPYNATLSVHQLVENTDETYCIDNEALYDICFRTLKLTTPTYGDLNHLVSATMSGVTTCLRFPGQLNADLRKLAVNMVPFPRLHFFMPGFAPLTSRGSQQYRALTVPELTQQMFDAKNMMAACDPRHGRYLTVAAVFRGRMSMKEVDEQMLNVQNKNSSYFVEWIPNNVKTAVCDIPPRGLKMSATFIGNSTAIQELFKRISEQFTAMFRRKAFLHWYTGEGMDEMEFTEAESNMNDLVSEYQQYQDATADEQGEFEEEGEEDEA
T1 sequence (P02550 whole entry partner): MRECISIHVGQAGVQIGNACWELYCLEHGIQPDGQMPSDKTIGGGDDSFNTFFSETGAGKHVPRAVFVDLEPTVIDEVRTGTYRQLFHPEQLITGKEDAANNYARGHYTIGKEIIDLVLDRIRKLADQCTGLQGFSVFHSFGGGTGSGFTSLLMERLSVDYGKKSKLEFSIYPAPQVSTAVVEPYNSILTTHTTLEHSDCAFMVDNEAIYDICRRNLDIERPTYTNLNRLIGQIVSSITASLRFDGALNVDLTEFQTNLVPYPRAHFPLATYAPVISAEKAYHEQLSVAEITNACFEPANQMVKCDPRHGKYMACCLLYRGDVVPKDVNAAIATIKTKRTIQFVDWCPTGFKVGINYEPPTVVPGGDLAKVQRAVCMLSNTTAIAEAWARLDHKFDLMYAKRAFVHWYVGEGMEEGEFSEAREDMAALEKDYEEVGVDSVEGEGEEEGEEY

Consider `CCOC(=O)c1[nH]c(C=O)c(-c2ccc(OC)c(OC)c2OC)c1Br` [Example 2, 3-Bromo-4-(2,3,4-trimethoxyphenyl)-5-formyl-1H-pyrrole 2-carboxylic acid ethyl ester], for which the melting point was 158 to 160 °C. Besides, the EC50 with A-10 cells (setting [5]) was 66 nM. This compound also had an IC50 in the series on HeLa WT-β-III cells (Homo sapiens, HeLa) of 104 ± 6.5 nM. The “Rr (β-III)” value in the series on HeLa WT-β-III cells is listed as 3.3. In addition, the IC50 in series [1] (setting [6]) came out at 72 ± 9.1 nM. The IC50 in series [1] (setting [7]) is 72 ± 9.1 nM. For the same compound, the inhibition at 2 µM in series [2] (compound at 2 μM) was 68%. This compound showed an IC50 in the series on SK-OV-3-MDR-1-6/6 cells (Homo sapiens, SK-OV-3) of 82.2 ± 9.4 nM. The “Rr (Pgp)” value with SK-OV-3-MDR-1-6/6 cells is reported as 1.1. The IC50 in series [3] (setting [8]) was determined as 57 ± 5 nM. Also, in series [3] (setting [9]), the concentration for half-maximal inhibition (IC50) amounted to 57 ± 5 nM. In addition, the IC50 in series [4] (setting [10]) came to 31.7 ± 4.8 nM. In series [4] (setting [11]), the IC50 was 31.7 ± 4.8 nM.

`CCOC(=O)c1[nH]c(Br)c(-c2ccc(OC)c(OC)c2OC)c1Br` [Example 22, 3,5-Dibromo-4-(2,3,4-trimethoxyphenyl)-1H-pyrrole-2-carboxylic acid ethyl ester]: in the series with A-10 cells (setting [5]), the EC50 worked out at 34.5 nM. For the same compound, the IC50 with HeLa WT-β-III cells (Homo sapiens, HeLa) came out at 15.7 ± 0.2 nM; in series [1] (setting [6]), 15.2 ± 0.8 nM; in series [1] (setting [7]) it was 15.2 ± 0.8 nM; in the series with SK-OV-3-MDR-1-6/6 cells (Homo sapiens, SK-OV-3) it was 10.6 ± 0.3 nM; in series [3] (setting [8]) it was 10.4 ± 0.5 nM; in series [4] (setting [10]) it was 12.9 ± 0.8 nM. Further, the IC50 in series [4] (setting [11]) was found to be 12.9 ± 0.8 nM. In the series with HeLa WT-β-III cells, the “Rr (β-III)” value is listed as 1.2. At 1 µM the inhibition in series [2] (compound at 1 μM) was 53%. Further, the “Rr (Pgp)” value in the series with SK-OV-3-MDR-1-6/6 cells amounted to 0.7.

For the compound `CCOC(=O)c1[nH]c(C=NO)c(-c2ccc(OC)c(OC)c2OC)c1Br` (mixture of isomers) [Example 10a, Cis/Trans-3-Bromo-4-(2,3,4-trimethoxyphenyl)-5-oximino-1H-pyrrole 2-carboxylic acid ethyl ester], the EC50 with A-10 cells (Table 50, concentration causing approximately 50% loss of interphase microtubules) is 9.8 nM; with A-10 cells (Table 52) it was 8.9 nM. Moreover, the IC50 with HeLa WT-β-III cells was 4.1 ± 1 nM; in series [1] (Table 48, 48 hr exposure, read-out: SK-OV-3 Anti-Proliferative Activity, IC50) it was 5.3 ± 0.2 nM; in series [1] (Table 49, parental line, 48 hr, read-out: SK-OV-3 IC50) it was 5.3 ± 0.2 nM; with SK-OV-3-MDR-1-6/6 cells it was 6.6 ± 1.2 nM; in series [3] (Table 48, 48 hr exposure, SRB assay), 2.7 ± 0.2 nM; in series [3] (Table 52), 2.7 ± 0.2 nM. Besides, the IC50 was found to be 5 ± 0.3 nM in series [4] (Table 48, 48 hr exposure, read-out: HeLa Anti-Proliferative Activity, IC50) and 5 ± 0.3 nM in series [4] (Table 49, parental line, 48 hr, read-out: HeLa IC50). The “Rr (β-III)” value in the series with HeLa WT-β-III cells was found to be 0.9. For the same compound, the “% Inhibition of Tubulin Polymerization” value in series [2] (compound at 2 μM) is given as 75%. Further, the “Rr (Pgp)” value with SK-OV-3-MDR-1-6/6 cells was 1.2.

`CCOC(=O)c1[nH]c(C(F)F)c(-c2ccc(OC)c(OC)c2OC)c1Br` [Example 6, 3-Bromo-4-(2,3,4-trimethoxyphenyl)-5-(difluoromethinyl)-1H-pyrrole 2-carboxylic acid ethyl ester] displayed a melting point of 149 to 151 °C. Moreover, in the series on A-10 cells (setting [5]), the concentration for a half-maximal effect (EC50) stood at 315 nM. In the series on HeLa WT-β-III cells (Homo sapiens, HeLa), the IC50 was found to be 184 ± 30.3 nM. Besides, the “Rr (β-III)” value in the series on HeLa WT-β-III cells worked out at 1.3. For the same compound, in series [1] (setting [6]), the IC50 is 227 ± 14 nM. Besides, in series [1] (setting [7]), the IC50 was determined as 227 ± 14 nM. This compound also displayed an inhibition at 2 µM in series [2] (compound at 2 μM) of 55%. Besides, the IC50 with SK-OV-3-MDR-1-6/6 cells (Homo sapiens, SK-OV-3) was found to be 174 ± 12.5 nM. The “Rr (Pgp)” value in the series on SK-OV-3-MDR-1-6/6 cells is on record as 0.8. In series [3] (setting [8]), the IC50 amounted to 113 ± 6 nM. The IC50 in series [3] (setting [9]) came out at 113 ± 6 nM. For the same compound, in series [4] (setting [10]), the IC50 is 142 ± 11 nM. Also, the IC50 in series [4] (setting [11]) turned out to be 142 ± 11 nM.

In turn, `CCOC(=O)c1[nH]c(C=O)c(-c2ccc(OC)c(OC)c2OC)c1Cl` [Example 3, 3-Chloro-4-(2,3,4-trimethoxyphenyl)-5-formyl-1H-pyrrole 2-carboxylic acid ethyl ester] registered a melting point of 193 to 195 °C. Moreover, the EC50 in the series with A-10 cells (setting [5]) turned out to be 107 nM. In the series with HeLa WT-β-III cells (Homo sapiens, HeLa), this compound had an IC50 of 106 ± 6.6 nM. The “Rr (β-III)” value with HeLa WT-β-III cells amounted to 2.4. In addition, the IC50 in series [1] (setting [6]) was 67.8 ± 16.2 nM. The IC50 in series [1] (setting [7]) amounted to 67.8 ± 16.2 nM. The same compound showed an IC50 with SK-OV-3-MDR-1-6/6 cells (Homo sapiens, SK-OV-3) of 76 ± 22.9 nM. In addition, the “Rr (Pgp)” value in the series on SK-OV-3-MDR-1-6/6 cells came out at 1.1. In addition, the IC50 in series [3] (setting [8]) turned out to be 64 ± 8.5 nM. Also, the IC50 in series [3] (setting [9]) was 64 ± 8.5 nM. For the same compound, the IC50 in series [4] (setting [10]) turned out to be 43.5 ± 1.7 nM. Further, the IC50 in series [4] (setting [11]) stood at 43.5 ± 1.7 nM.
